Data on one compound can be found in patent publication US20240251807A1, “SYSTEMS AND METHODS FOR DISPERSING ACTIVE INGREDIENTS” (Hazel Technologies, Inc., priority 2021, published 2024).

Molecules are shown by their SMILES.

Format in all cases: physicochemical
Data set [1] is described as follows: 1-MCP release rate as a function of air speed. Conditions: five air speeds and 0 m/s, 0.5 kg activated carbon powder, sealed room of approximately 30,000 cubic feet. As for the experimental part:
This example describes the release rate of an active ingredient from a delivery material as a function of gaseous fluid flow rate through the delivery material. Specifically, the rate of gaseous 1-MCP release via pump-driven air flow was measured as a function of the air flow rate.
In a sealed apple storage room of approximately 30,000 cubic feet, 0.5 kg of a particulate delivery material in the form of activated carbon powder associated with an activated ingredient in the form of 1-MCP was held in front of pumps in the form of fans with known air speeds for greater than 2 hours each. The fan type and geometry was varied to access various air speeds. The concentration of 1-MCP in the atmosphere of the sealed apple storage room was monitored using measurements from a detector making use of the C2H4 sensor described in Example 1, and release rates were calculated at five different air speeds, as well as at a flow rate of 0 m/s.

Data set [2] can be described thus: 1-MCP release, dry forced-air (duct fan) vs water-based release in sealed apple storage room. Conditions: sealed room 2-6° C. The procedure: This example describes a comparison of active ingredient release profiles and rates using a device and system of this disclosure as compared to an existing technique. Specifically, gaseous 1-MCP release via pump-driven gaseous fluid flow was compared to water-based release of 1-MCP.
A pump in the form of a duct fan was placed inside of a 30,624 cubic foot apple storage room kept between 2-6° C. The fan was placed facing up onto two iron bars to allow space for air to enter below the fan. The device was assembled by placing a 12″ mesh sieve on top of the duct fan, to which was added a 1 kg bed of a particulate delivery material in the form of activated carbon powder associated with an activated ingredient in the form of 1-MCP. The sieve and delivery material was then contained by placing a pair of nylon stockings over the opening of the sieve and sealing it all with duct tape. The room was vacated by the user and sealed before the fan was turned on. […] At the same time, a comparative experiment was performed by placing, in an adjacent identical apple storage room, a bucket containing 12 L of distilled water and 4 aerators (each of which produced 0.024 cubic feet per min, 0.096 cubic feet per minute total). […] The 1-MCP levels in the sealed apple storage room for the second, comparative experiment was measured in the same manner as described above.

Data set [3] in a line: 1-MCP buildup and retention in sealed vs unsealed apple storage room, box fan device. Particulars: 2-6° C., after 15 hours of running the fan, 0.5 kg activated carbon bed. As for the experimental part:
This example describes release of an active ingredient into an enclosure using a device and system as described in this disclosure. Specifically, gaseous 1-MCP buildup and retention in an enclosure in the form of a sealed apple room was compared to buildup and retention in an unsealed apple storage room.
A pump in the form of a 20″×20″ box fan was placed inside of a 33,264 cubic foot apple storage room kept at a temperature between 2-6° C., with the fan facing up and elevated several inches from the ground to allow space for air to enter the fan from below. The device was assembled by placing a metal air filter housing and a 20″×20″ air filter (Nordic Pure® Part 20201.8-3) on top of the fan, to which was added a 0.5 kg bed of a particulate delivery material in the form of activated carbon powder associated with an activate ingredient in the form of 1-MCP. Another identical 20″×20″ air filter was placed on top of the 1-MCP-loaded activated carbon and secured with a clamp. The apple storage room was vacated by the user and sealed before the fan was turned on. […] The C2H4 sensor was calibrated for 1-MCP by comparison with gas chromatography readings, and reported values in millivolts which were subtracted from baseline readings for the detector and then converted via the calibration curve to concentration measurements. […]

Data set [4] can be described thus: 1-MCP release with pump vs without pump in sealed apple storage room. Conditions: box fan on vs off, first 240 minutes, 0.5 kg activated carbon bed, sealed room 2-6° C. As for the experimental part: This example describes the effect of directing gaseous fluid flow through a delivery material on the rate of release of active ingredients. Specifically, gaseous 1-MCP release via pump-driven gas flow was compared to release in the absence of pump-driven flow.
A pump in the form of a 20″×20″ box fan was placed inside of a 33,264 cubic foot apple storage room kept at a temperature between 2-6° C., with the fan facing up and elevated several inches from the ground to allow space for air to enter the fan from below. The device was assembled by placing a metal air filter housing and a 20″×20″ air filter (Nordic Pure® Part 20201.8-3) on top of the fan, to which was added a 0.5 kg bed of a particulate delivery material in the form of activated carbon powder associated with an activated ingredient in the form of 1-MCP. Another identical 20″×20″ air filter was placed on top of the 1-MCP-loaded activated carbon and secured with a clamp. The apple storage room was vacated by the user and sealed before the fan was turned on. At the same time, in an adjacent, identical apple storage room, a second, identical device described above was set up with a 0.5 kg bed of activated carbon powder associated with 1-MCP. However, the fan of this second device was not turned on.

For `CC1=CC1` [1-MCP, 1-methylcyclopropene], the “1-MCP release rate as a function of air speed” value in data set [1] is “greater rate when faster air speeds were used”. Besides, in data set [2] (dry forced-air release method, duct fan), the “duration of sustained release” value is greater than 170 min. For the same compound, in data set [2] (initial slope of concentration profiles, 1 kg activated carbon bed), the “increase in rate of release, dry forced-air release vs water-based release” value is recorded as 16 fold. In addition, the entries for the “measured 1-MCP level in room” value in data set [3] (sealed apple storage room) and in data set [3] (unsealed apple storage room (portal door open)) were “greater 1-MCP level” and “significant level of 1-MCP”, respectively. In addition, the “1-MCP release with pump compared to no pump” value in data set [4] was “released at a greater rate and in greater amounts”.
